Data taken from article PMC7774954, “Interactomic affinity profiling by holdup assay: Acetylation and distal residues impact the PDZome-binding specificity of PTEN phosphatase” (PLoS ONE, 2020).
*1 amine or outer side, *2 acyl side, *3 side chain or, on linkers, in order; H or OH if unused. Where a SMILES comes first, the peptide text is derived from it. The star is where a group is joined. X1 = O=C(CCCC[C@@H]1SC[C@@H]2NC(=O)N[C@@H]21)NCCCOCCOCCOCCCN*; Suc = O=C(CCC(=O)[*:2])[*:1]

Key:
[1] = tested on: INADL-10; test: Holdup assay, INADL-10; format: binding, human
[2] = molecular target: DLG1-1 (Homo sapiens, UniProt Q12959); test: Holdup assay, DLG1-1; format: binding
[3] = molecular target: T1, SNTB2 PDZ 1 (Homo sapiens, UniProt Q13425); test: Holdup assay, SNTB2-1; format: binding; details: for BI: PDZ domain SNTB2-1
T1 construct: made in house; host or cells: E. coli
T1 sequence (Q13425 115-198 limits assumed): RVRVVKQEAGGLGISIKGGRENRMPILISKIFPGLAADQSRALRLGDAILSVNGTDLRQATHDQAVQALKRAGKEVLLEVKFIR
Protocol: (§1) The holdup assay was performed on a Tecan freedom Evo200 robot with 384-well plates in singlicate for the three 11-mer PTEN variants and the 13-mer PTEN peptide as described in [31, 32]. Briefly, prior to interaction assay, 2.5 μL of streptavidin resin was saturated in each well with 20 μL of biotinylated PBM peptides (42 μM) and then washed twice with an excess of free biotin, while the reference resin was incubated only with biotin. Right before the holdup experiment, the PDZ library was spiked with an internal standard of lysozyme. Then, the biotin- or PBM-saturated resin was incubated, each in a distinct well of a 384-well plate, with complete cell lysates diluted so that the concentration of the tag-PDZ present in the crude extract is adjusted at 4 μM. After a sufficient time to reach complex equilibrium (15 min.), a fast and mild filtration step is performed and the tag-PDZ concentrations were measured by capillary electrophoresis instrument (LabChip GXII, PerkinElmer, Massachusets, USA). Standard markers were used to convert migration time into molecular weight on the LabChip software and inappropriate molecular weight markers were corrected or excluded.
(§2) For filtered data, the BI was extracted with the following equation (Eq 1) that estimates the depleted fraction after superimposition of the sample and reference electropherograms: BI=Iref−Ilig/Iref (1) where Iref and Ilig are the intensities of the tag-PDZ peaks measured, for each PDZ domain/PBM peptide interaction pair, in the biotin reference and the PBM electropherograms, respectively.
(§3) BIs were transformed into dissociation constants (KD) using the following formula: KD=([PDZtot]−BI·[PDZtot])·([PBMtot]−BI·[PDZtot])/BI·[PDZtot] (2) where [PDZtot] and [PBMtot] correspond to the total concentrations of the PDZ domain (usually around 4 μM) and the PBM peptide used during the assay. Since the PBMtot concentration in the resin during the holdup assay parameter may differ from one peptide to another and remains unknown, it is impossible to directly convert BI values into KD constants. We systematically determined the KD constants for a subset of PDZ/PBM pairs by competitive FP. […] For each PBM, the average peptide concentration was calculated after outlier rejection based on the absolute distances from the median as compared to three times the standard deviation (3σ rule), with never more than 2 values rejected.

[4] = molecular target: T2, MAST1 PDZ 1 (Homo sapiens, UniProt Q9Y2H9); test: Holdup assay, MAST1-1; format: binding; details: for BI: MAST1-1
T2 construct: made in house; host or cells: E. coli
T2 sequence (Q9Y2H9 967-1055 limits assumed): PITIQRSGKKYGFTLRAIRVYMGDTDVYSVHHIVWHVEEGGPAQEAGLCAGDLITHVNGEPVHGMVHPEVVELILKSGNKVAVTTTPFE
Protocol: as §1, §2, §3

[5] = tested on: MPDZ-1; test: Holdup assay, MPDZ-1; format: binding, human
[6] = molecular target: T3, MAGI3-6 (Homo sapiens, UniProt Q5TCQ9); test: Holdup assay, MAGI3-6; format: binding
T3 sequence (Q5TCQ9 1-1481): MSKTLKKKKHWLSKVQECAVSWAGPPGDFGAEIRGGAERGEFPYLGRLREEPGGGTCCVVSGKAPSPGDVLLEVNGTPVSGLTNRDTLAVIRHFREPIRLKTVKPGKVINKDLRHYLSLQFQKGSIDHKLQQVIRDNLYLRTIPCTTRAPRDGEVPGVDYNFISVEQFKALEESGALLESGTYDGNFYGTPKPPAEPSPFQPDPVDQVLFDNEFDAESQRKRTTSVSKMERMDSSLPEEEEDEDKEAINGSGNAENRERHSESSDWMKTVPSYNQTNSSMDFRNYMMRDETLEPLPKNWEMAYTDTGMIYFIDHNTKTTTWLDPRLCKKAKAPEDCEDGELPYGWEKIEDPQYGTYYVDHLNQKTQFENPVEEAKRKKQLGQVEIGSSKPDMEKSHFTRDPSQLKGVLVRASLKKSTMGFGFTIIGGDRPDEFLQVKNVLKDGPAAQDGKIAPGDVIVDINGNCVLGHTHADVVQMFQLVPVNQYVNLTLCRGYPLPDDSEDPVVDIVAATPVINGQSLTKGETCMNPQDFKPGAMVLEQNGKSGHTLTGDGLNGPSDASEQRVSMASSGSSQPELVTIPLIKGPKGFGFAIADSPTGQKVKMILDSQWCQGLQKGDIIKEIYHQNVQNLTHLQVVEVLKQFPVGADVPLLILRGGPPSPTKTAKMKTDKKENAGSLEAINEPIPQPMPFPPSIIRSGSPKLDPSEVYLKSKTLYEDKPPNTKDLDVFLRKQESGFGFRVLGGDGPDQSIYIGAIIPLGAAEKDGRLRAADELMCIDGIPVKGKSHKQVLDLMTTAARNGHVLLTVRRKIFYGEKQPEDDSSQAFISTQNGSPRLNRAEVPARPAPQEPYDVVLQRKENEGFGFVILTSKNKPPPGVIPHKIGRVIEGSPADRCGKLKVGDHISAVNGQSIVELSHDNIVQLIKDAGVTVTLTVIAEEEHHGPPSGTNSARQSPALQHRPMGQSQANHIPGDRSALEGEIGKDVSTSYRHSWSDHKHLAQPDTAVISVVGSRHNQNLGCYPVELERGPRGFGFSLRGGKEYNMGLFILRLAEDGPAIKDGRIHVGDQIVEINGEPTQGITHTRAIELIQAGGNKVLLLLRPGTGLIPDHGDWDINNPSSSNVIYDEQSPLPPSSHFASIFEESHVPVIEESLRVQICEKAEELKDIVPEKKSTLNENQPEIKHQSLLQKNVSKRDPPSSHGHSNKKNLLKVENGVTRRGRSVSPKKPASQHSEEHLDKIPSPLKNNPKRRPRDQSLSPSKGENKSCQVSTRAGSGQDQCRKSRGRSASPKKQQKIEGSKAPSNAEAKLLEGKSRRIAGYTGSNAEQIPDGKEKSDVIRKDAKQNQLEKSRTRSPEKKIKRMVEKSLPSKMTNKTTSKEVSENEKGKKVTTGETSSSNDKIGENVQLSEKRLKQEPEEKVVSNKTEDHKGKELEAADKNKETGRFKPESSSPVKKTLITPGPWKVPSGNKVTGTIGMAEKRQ

[7] = molecular target: T4, MAGI1 PDZ 3 (Homo sapiens, UniProt Q96QZ7); test: Holdup assay, MAGI1-3; format: binding; details: for BI: MAGI1-3
T4 construct: made in house; host or cells: E. coli
T4 sequence (Q96QZ7 643-721 limits assumed): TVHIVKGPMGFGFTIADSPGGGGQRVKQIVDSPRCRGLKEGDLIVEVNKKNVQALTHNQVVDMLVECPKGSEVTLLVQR
Protocol: as §1, §2, §3

[8] = tested on: INADL-2; test: Holdup assay, INADL-2; format: binding, human

SMILES	BI [1]	LogKD [1]	Kd [2] [µM]	BI ([2]; DLG1-1)	BI [3]	Kd [4] [µM]	BI [4]	BI [5]	LogKD [5]	BI [6]	LogKD [6]	Kd [7] [µM]	BI [7]	BI [8]	LogKD [8]	LogKD ([2]; DLG1-1)	Kd [3] [µM]	Kd [6] [µM]
CC[C@H](C)[C@H](NC(=O)[C@H](CCC(N)=O)NC(=O)[C@@H](NC(=O)[C@H](Cc1c[nH]cn1)NC(=O)[C@H](CCC(N)=O)NC(=O)[C@H](CC(=O)O)NC(=O)[C@H](CCC(=O)O)NC(=O)[C@H](CC(=O)O)NC(=O)CCC(=O)NCCCOCCOCCOCCCNC(=O)CCCC[C@@H]1SC[C@@H]2NC(=O)N[C@@H]21)[C@@H](C)O)C(=O)N[C@H](C(=O)N[C@@H](CCCNC(=N)N)C(=O)N[C@H](C(=O)O)C(C)C)[C@@H](C)O [PTEN_KR] ({X1-Suc}-DEDQHTQITRV-OH)	0.019	3.655	88.1	0.215	0.009	32.2	0.42	-0.039	3.655	0.067	3.655	14.7	0.605	0.064	3.655			
CC[C@H](C)[C@H](NC(=O)[C@H](CCC(N)=O)NC(=O)[C@@H](NC(=O)[C@H](Cc1c[nH]cn1)NC(=O)[C@H](CCC(N)=O)NC(=O)[C@H](CC(=O)O)NC(=O)[C@H](CCC(=O)O)NC(=O)[C@H](CC(=O)O)NC(=O)[C@H](Cc1ccccc1)NC(=O)[C@@H]1CCCN1C(=O)CCC(=O)NCCCOCCOCCOCCCNC(=O)CCCC[C@@H]1SC[C@@H]2NC(=O)N[C@@H]21)[C@@H](C)O)C(=O)N[C@H](C(=O)N[C@@H](CCCCN)C(=O)N[C@H](C(=O)O)C(C)C)[C@@H](C)O [PTEN_13] ({X1-Suc}-PFDEDQHTQITKV-OH)	-0.05			0.011	0.202	7.64		0.011		0.044	3.826	10.4	0.584	0.043		3.826	64	
CC[C@H](C)[C@H](NC(=O)[C@H](CCC(N)=O)NC(=O)[C@@H](NC(=O)[C@H](Cc1c[nH]cn1)NC(=O)[C@H](CCC(N)=O)NC(=O)[C@H](CC(=O)O)NC(=O)[C@H](CCC(=O)O)NC(=O)[C@H](CC(=O)O)NC(=O)CCC(=O)NCCCOCCOCCOCCCNC(=O)CCCC[C@@H]1SC[C@@H]2NC(=O)N[C@@H]21)[C@@H](C)O)C(=O)N[C@H](C(=O)N[C@@H](CCCCNC(C)=O)C(=O)N[C@H](C(=O)O)C(C)C)[C@@H](C)O [PTEN_Ac]				0.168		26.3	0.497	0.074	3.605	0.251		10	0.715					80.6
CC[C@H](C)[C@H](NC(=O)[C@H](CCC(N)=O)NC(=O)[C@@H](NC(=O)[C@H](Cc1c[nH]cn1)NC(=O)[C@H](CCC(N)=O)NC(=O)[C@H](CC(=O)O)NC(=O)[C@H](CCC(=O)O)NC(=O)[C@H](CC(=O)O)NC(=O)CCC(=O)NCCCOCCOCCOCCCNC(=O)CCCC[C@@H]1SC[C@@H]2NC(=O)N[C@@H]21)[C@@H](C)O)C(=O)N[C@H](C(=O)N[C@@H](CCCCN)C(=O)N[C@H](C(=O)O)C(C)C)[C@@H](C)O [PTEN_11]	0.022	3.519		0.109	0.023	38.5	0.455	0.039	3.519	0.071	3.519	29.6	0.519	0.007	3.519			
